Data published in patent US20070196514A1, “Prostate cancer treatment with glycogen synthase kinase-3beta inhibitors” (priority 2006, published 2007).

Assays:
PC-3 cells [1] = assay: MTT cell growth assay; assay type: cell-based, human; conditions: equimolecular concentrations of LiCl, NaCl, KCl, three days
Procedure: (§1) For MTT-based cell growth assays, cells seeded in 96-well plates were serum-starved for 48 hours, and were then treated with vehicle or different reagents for different time periods as indicated in the figures. MTT assay were carried out using a pre-assembled kit (Sigma) according to the manufacturer's manual.
(§2) To rule out the eventual intervention of the chloride anion and the osmotic disturbance, the effect of LiCl was compared with sodium chloride (“NaCl”) and potassium chloride (“KCl”) at equimolecular concentrations in both LNCaP and PC-3 cell lines. In addition, the androgen-insensitive C4-2 cell line was included. To easily handle the experiments while multiple comparisons were taken in place, a MTT assay was used to assess cell growth.

C4-2 cells = assay: MTT cell growth assay; assay type: cell-based, human; conditions: equimolecular concentrations of LiCl, NaCl, KCl, three days
Procedure: as §1, §2

PC-3 cells [2] = assay: clonogenic assay; assay type: cell-based, human; conditions: LiCl 10 mM, 14 days
Procedure: For clonogenic assays, 1.0×10^3 cells were seeded in a 35-mm dish and cultured in a medium containing LiCl at the indicated doses. The cultures were monitored daily for colony formation. On day 14, the cultures were washed with phosphate-buffered saline (“PBS”), fixed, and stained as described previously (Liao 2005). The colonies were counted and photographed under an inverted microscope.
Next, the clonogenic assay was used to test the effect of LiCl on cell colony formation. The clonogenic survival fractions of the cells cultured in the presence or absence of increasing concentration of LiCl were measured in two cell lines, androgen refractory PC-3 (data shown) and androgen-responsive LNCaP (data not shown).

LNCaP cells = assay: Affymetrix cDNA microarray for LiCl-induced changes; assay type: cell-based, human
Procedure: Genechip® arrays (Affymetrix Inc, Santa Clara, Calif.) used herein contain almost 45,000 probe sets representing more than 39,000 transcripts derived from approximately 33,000 well substantial human genes. The in vitro-transcription labeling is conducted using the EnzoBio array high yield RNA transcript labeling kit (Affymetrix). Ten micrograms of total RNAs were used for the first strand cDNA synthesis using the SuperscriptChoice system (Invitrogen).
Genechips were hybridized for 16 hours at 45° C. and 60 rpm in Genechip hybridization oven Model 640. After washing the Genechip, the signal intensity was detected using the Agilent Gene Array scanner.
This example investigated the genes that are altered by GSK-3β inhibition. This approach started with a genome-wide screening of gene expression with cDNA Microarray to identify the altered genes, which was verified by RT-PCR and Western blot at mRNA and protein levels, respectively. After sequestered in serum-free media for 24 hours, LNCaP cells were left untreated or treated with LiCl in a full culture media for 18 hours. The total cellular RNAs were extracted from the cells for cDNA Microarray analysis.

AR-null PC-3 xenografts = assay: mouse xenograft model, protocol A; assay type: in vivo, nude mice; conditions: LiCl 2 mg/kg i.p. daily
Procedure: All animal studies were conducted under an approved Institutional Animal Care and Use Committee protocol. Single cell suspensions (2×10^6 cells in 0.1 ml of RPMI1640 medium plus 10% FBS) were inoculated subcutaneously (s.c.) into the rear flanks (two sites/mouse) of 6 to 7 weeks old male nude mice (Charles River, Wilmington, Mass.). For protocol A, mice were randomly divided into two groups (5 animals each). On next day after inoculation, one group of animals received i.p. injection of LiCl at a daily dose of 2 mg/kg body weight. LiCl was dissolved in PBS. The control groups of animals received PBS alone in the same volume. Xenograft development and growth were monitored for 8 weeks. The tumor dimensions were measured twice a week. The tumor volume was calculated by the formula of L×W×H×0.5236 (Miyake 2001). At the end of treatment, xenograft tumors were extirpated, and the final tumor size and weight, as well as animal weight were measured. For protocol B, treatment began until tumor became palpable or 50 mm^3 in size, and LiCl or PBS was injected (5 animals each group) as above for a two-week course. Tumor size and weight were measured at the end of treatment. For BrdU in vivo labeling, the animals were injected i.p. with 0.5 ml of a 10-mM BrdU solution (Invitrogen) 2 hours before sacrifice. For experiments involving LNCaP-BclxL SB216763 subline cells (Liao 2005) were inoculated as above, and SB216763 treatment was started two weeks later when palpable xenografts were established. The SB216763 for animal use was purchased from Biomol (Plymouth Meeting, Pa.) and dissolved in a formula containing 50% N,N-dimethylacetamide (“DMA”), 45% polyethylene glycol 400 (“PEG-400”) and 5% Tween-80. SB216763 (2 mg/kilogram/bodyweight) or the solvent in 20 μl volume was injected i.p. three times a week. Tumor growth was monitored as discussed herein.
This example investigated GSK-3β inhibitor-induced suppression of cancer cell growth in vivo. A mouse xenograft model was used to examine the effect of GSK-3β inhibitor on tumor growth in two different strategies (protocol A and B). In both protocols, LiCl was delivered at a daily dose i.p. of 2 mg/kg of body weight. This dose level is more than 100-fold lower than a therapeutic dose for mental diseases in mouse (Noble 2005) or human (Moore 2002).
In protocol A, LiCl treatment was started on the same day when AR-null PC-3 cancer cells were inoculated into animals. AR-null PC-3 xenografts were developed around 4 weeks after inoculation in PBS-treated control animals.

[3] = LiCl in full culture media 18 hours, down-regulation
[4] = LiCl in full culture media 18 hours, up-regulation
[5] = protocol A, end of 8-week treatment

SMILES: [Cl-].[Li+] [LiCl, Lithium chloride]
- cell growth inhibition (MTT) (PC-3 cells [1]): dramatic inhibition
- cell growth inhibition (MTT) (C4-2 cells): dramatic inhibition
- clonogenic surviving fractions (PC-3 cells [2]): significantly suppressed
- fold change, Cyclin A2 (203418_at) (LNCaP cells; [3]): −4.19
- fold change, Cyclin E2 (205034_at) (LNCaP cells; [3]): −2.99
- fold change, Cyclin E2 (211814_s_at) (LNCaP cells; [3]): −2.18
- fold change, cdc6 (203967_at) (LNCaP cells; [3]): −3.47
- fold change, cdc6 (203968_s_at) (LNCaP cells; [3]): −3
- fold change, cdc25c (205167_s_at) (LNCaP cells; [3]): −2.74
- fold change, cdc25c (217010_s_at) (LNCaP cells; [3]): −5.99
- fold change, cyclin B2 (202705_at) (LNCaP cells; [3]): −1.4
- fold change, p27KIP1 (209112_at) (LNCaP cells; [3]): −1.17
- fold change, cyclin D1 (203665_at) (LNCaP cells; [4]): 2.07
- fold change, cyclin D1 (208712_at) (LNCaP cells; [4]): 1.84
- fold change, cyclin G2 (202770_s_at) (LNCaP cells; [4]): 1.87
- fold change, p21CIP1 (202284_s_at) (LNCaP cells; [4]): 5.7
- fold change, p57KIP2 (213348_at) (LNCaP cells; [4]): 1.79
- microarray expression of cyclin D1 (LNCaP cells; LiCl treatment): slight increase
- microarray expression of other cell cycle related proteins (cyclin B, cdc2, p27KIP1, p57KIP2) (LNCaP cells; LiCl treatment): No significant changes
- treatment signal, p57KIP2 (213348_at) (LNCaP cells; LiCl-treated, control signal 137.6): 246.4
- treatment signal, cdc25c (217010_s_at) (LNCaP cells; LiCl-treated, control signal 207.8): 34.7
- treatment signal, cyclin D1 (203665_at) (LNCaP cells; LiCl-treated, control signal 294.7): 609.3
- treatment signal, cyclin G2 (202770_s_at) (LNCaP cells; LiCl-treated, control signal 325.3): 606.9
- treatment signal, p21CIP1 (202284_s_at) (LNCaP cells; LiCl-treated, control signal 430.9): 2457.2
- treatment signal, cdc25c (205167_s_at) (LNCaP cells; LiCl-treated, control signal 442.3): 161.2
- treatment signal, Cyclin E2 (211814_s_at) (LNCaP cells; LiCl-treated, control signal 852.7): 391.2
- treatment signal, cyclin D1 (208712_at) (LNCaP cells; LiCl-treated, control signal 853.9): 1568.2
- treatment signal, cdc6 (203968_s_at) (LNCaP cells; LiCl-treated, control signal 1132.5): 377.9
- treatment signal, cdc6 (203967_at) (LNCaP cells; LiCl-treated, control signal 1136): 327
- treatment signal, Cyclin E2 (205034_at) (LNCaP cells; LiCl-treated, control signal 1268.1): 423.8
- treatment signal, p27KIP1 (209112_at) (LNCaP cells; LiCl-treated, control signal 1365.8): 1171.7
- treatment signal, Cyclin A2 (203418_at) (LNCaP cells; LiCl-treated, control signal 1529.8): 364.7
- treatment signal, cyclin B2 (202705_at) (LNCaP cells; LiCl-treated, control signal 2379.1): 1693.9
- animal body weight and daily activities, treatment vs control (AR-null PC-3 xenografts; nude mice): no significant difference
- abnormality of daily activities / side effects (AR-null PC-3 xenografts; nude mice, both protocols A and B): no obvious abnormality of daily activities or any sign of side effect
- xenograft development, time after inoculation (AR-null PC-3 xenografts; protocol A, PBS control around 4 weeks): 6-7 weeks
- tumor volume vs PBS control (AR-null PC-3 xenografts; [5]): significant reduction
- tumor weight vs PBS control (AR-null PC-3 xenografts; [5]): significant reduction
